This note sets out measurements from ChEMBL document CHEMBL1140125, “Purity-activity relationships of natural products: the case of anti-TB active ursolic acid” (2008).

Assay [1] concerns Mycobacterium tuberculosis. The experiment in a line: Antimycobacterial activity against Mycobacterium tuberculosis H37Rv ATCC 27294 after 7 days by microplate Alamar blue assay. Type of assay: functional. As to conditions: 168 h. (Alamar Blue is a resazurin reagent that responds to reducing activity.)
In assay [2] the test system is Mycobacterium tuberculosis. Put plainly: Antimycobacterial activity against Mycobacterium tuberculosis H37Rv GFP after 7 days by green fluorescent microplate assay. Type of assay: functional. As to conditions: 168 h.

Structures are written as SMILES. Converted amounts (≈) assume the structure as drawn.

Usually MIC stands for the lowest concentration found to suppress growth. A lower MIC goes with inhibition by little substance. Consider `C=C(C)[C@@H]1CC[C@]2(C(=O)O)CC[C@]3(C)[C@H](CC[C@@H]4[C@@]5(C)CC[C@H](O)C(C)(C)[C@@H]5CC[C@]43C)[C@@H]12` [BETULINIC ACID], for which, in assay [1], the MIC was over 128 µg/mL.
Consider `CC1(C)CC[C@]2(C(=O)O)CC[C@]3(C)C(=CC[C@@H]4[C@@]5(C)CC[C@H](O)C(C)(C)[C@@H]5CC[C@]43C)[C@@H]2C1` [OLEANOLIC_ACID], for which, in assay [1], the MIC was determined as 100 µg/mL (≈ 219 µM).
Take `C[C@H]1[C@H](C)CC[C@]2(C(=O)O)CC[C@]3(C)C(=CC[C@@H]4[C@@]5(C)CC[C@H](O)C(C)(C)[C@@H]5CC[C@]43C)[C@H]12` [URSOLIC ACID]: the MIC in assay [1] is over 256 µg/mL; in assay [2], over 100 µg/mL.
